In ChEMBL document CHEMBL4219086, “Development of benzoxazole deoxybenzoin oxime and acyloxylamine derivatives targeting innate immune sensors and xanthine oxidase for treatment of gout” (Bioorg Med Chem, 2018):
Active and inactive are the calls of the source. No cut-off for these calls is given here.

Columns and labels:
[1] = target: Toll-like receptor 4 (Homo sapiens, UniProt O00206); test: Inhibition of human TLR4 signaling expressed in HEK-Blue cells co-expressing MD2/CD14 assessed as reduction in LPS-induced NF-kappaB activation-mediated SEAP production preincubated for 2 hrs followed by LPS stimulation for 20 hrs by colorimetric assay; assay type: cell-based
[2] = test system: Rattus norvegicus; test: Inhibition of MSU-induced NLRP3 protein level in synovial homogenate of acute gouty arthritis Sprague-Dawley rat model at 10 mg/kg, po qd pretreated via gavage for 5 days followed by MSU treatment at 1 hr post last dose measured up to 24 hrs by Western blot method; assay type: functional, organism-based
[3] = test system: Rattus norvegicus; test: Inhibition of MSU-induced MyD88 protein level in synovial homogenate of acute gouty arthritis Sprague-Dawley rat model at 10 mg/kg, po qd pretreated via gavage for 5 days followed by MSU treatment at 1 hr post last dose measured up to 24 hrs by Western blot method; assay type: functional, organism-based
[4] = test system: Rattus norvegicus; test: Inhibition of MSU-induced IL-1beta level in synovial homogenate of acute gouty arthritis Sprague-Dawley rat model at 10 mg/kg, po qd pretreated via gavage for 5 days followed by MSU treatment at 1 hr post last dose measured up to 24 hrs by ELISA; assay type: functional, organism-based
[5] = test system: Rattus norvegicus; test: Inhibition of MSU-induced phosphorylated IkappaB protein level in synovial homogenate of acute gouty arthritis Sprague-Dawley rat model at 10 mg/kg, po qd pretreated via gavage for 5 days followed by MSU treatment at 1 hr post last dose measured up to 24 hrs by Western blot method; assay type: functional, organism-based
[6] = test system: Rattus norvegicus; test: Inhibition of MSU-induced TNFalpha level in synovial homogenate of acute gouty arthritis Sprague-Dawley rat model at 10 mg/kg, po qd pretreated via gavage for 5 days followed by MSU treatment at 1 hr post last dose measured up to 24 hrs by ELISA; assay type: functional, organism-based
[7] = test system: Rattus norvegicus; test: Inhibition of MSU-induced TNFalpha level in serum of acute gouty arthritis Sprague-Dawley rat model at 10 mg/kg, po qd pretreated via gavage for 5 days followed by MSU treatment at 1 hr post last dose measured up to 24 hrs by ELISA; assay type: functional, organism-based
[8] = test system: Rattus norvegicus; test: Inhibition of MSU-induced ASC protein level in synovial homogenate of acute gouty arthritis Sprague-Dawley rat model at 10 mg/kg, po qd pretreated via gavage for 5 days followed by MSU treatment at 1 hr post last dose measured up to 24 hrs by Western blot method; assay type: functional, organism-based
[9] = test system: Rattus norvegicus; test: Inhibition of MSU-induced TLR4 protein level in synovial homogenate of acute gouty arthritis Sprague-Dawley rat model at 10 mg/kg, po qd pretreated via gavage for 5 days followed by MSU treatment at 1 hr post last dose measured up to 24 hrs by Western blot method; assay type: functional, organism-based
[10] = test system: Rattus norvegicus; test: Inhibition of MSU-induced caspase-1 protein level in synovial homogenate of acute gouty arthritis Sprague-Dawley rat model at 10 mg/kg, po qd pretreated via gavage for 5 days followed by MSU treatment at 1 hr post last dose measured up to 24 hrs by Western blot method; assay type: functional, organism-based
[11] = test system: Rattus norvegicus; test: (§1) Antiarthritic activity in MSU-induced acute gouty arthritis Sprague-Dawley rat model assessed as reduction in ankle swelling by measuring perimeter of ankle at 10 mg/kg, po qd pretreated via gavage for 5 days followed by MSU treatment at 1 hr post last dose measured after 12 hrs (reference value: 3.51 +/- 0.52 cm); assay type: functional
[12] = test system: Rattus norvegicus; test: as §1, with “8” for “12”, “3.27” for “3.51”, “0.56” for “0.52”; assay type: functional
[13] = test system: Rattus norvegicus; test: Inhibition of MSU-induced IL-1beta level in serum of acute gouty arthritis Sprague-Dawley rat model at 10 mg/kg, po qd pretreated via gavage for 5 days followed by MSU treatment at 1 hr post last dose measured up to 24 hrs by ELISA; assay type: functional, organism-based
[14] = test system: Rattus norvegicus; test: as §1, with “immediately” for “after 12 hrs”, “2.64” for “3.51”, “0.81” for “0.52”; assay type: functional
[15] = test system: Rattus norvegicus; test: as §1, with “24” for “12”, “3.35” for “3.51”, “0.5” for “0.52”; assay type: functional
[16] = test system: Rattus norvegicus; test: Inhibition of MSU-induced p65 NFkappaB protein level in synovial homogenate of acute gouty arthritis Sprague-Dawley rat model at 10 mg/kg, po qd pretreated via gavage for 5 days followed by MSU treatment at 1 hr post last dose measured up to 24 hrs by Western blot method; assay type: functional, organism-based
[17] = test system: Rattus norvegicus; test: as §1, with “4” for “12”, “3.18” for “3.51”, “0.64” for “0.52”; assay type: functional
[18] = test system: Rattus norvegicus; test: as §1, with “2” for “12”, “2.82” for “3.51”, “0.75” for “0.52”; assay type: functional
[19] = target: Xanthine dehydrogenase/oxidase (Homo sapiens, UniProt P47989); test: Inhibition of Xanthine oxidase (unknown origin) using xanthine as substrate preincubated for 1 to 5 mins followed by substrate addition
[20] = target: NACHT, LRR and PYD domains-containing protein 3 (Homo sapiens, UniProt Q96P20); test: Inhibition of NLRP3 inflammasome in human THP1 cells assessed as reduction in MSU-induced IL-1beta production preincubated for 1 hr followed by MSU stimulation measured after 6 hrs; assay type: cell-based
[21] = species on record: Mus musculus; conditions: Kunming, 10 mg/kg
Description: Anti-hyperuricemic effect in Kunming mouse assessed as inhibition of potassium oxonate-induced serum uric acid level at 10 mg/kg, po treated 1 hr post potassium oxonate addition measured after 1 hr by phosphotungstic acid method relative to control

[22] = test system: Mus musculus; test: In vivo inhibition of XOD activity in liver of Kunming mouse model of potassium oxonate-induced hyperuricemia at 10 mg/kg, po treated 1 hr post potassium oxonate addition measured after 1 hr relative to control; assay type: functional
[23] = test system: Mus musculus; test: Hypouricemic effect in Kunming mouse assessed as inhibition of hepatic XOD activity at 10 mg/kg, po measured after 1 hr relative to control; assay type: organism-based

NACHT, LRR and PYD domains-containing protein 3, sequence (Q96P20 whole entry, the tested form may be a part): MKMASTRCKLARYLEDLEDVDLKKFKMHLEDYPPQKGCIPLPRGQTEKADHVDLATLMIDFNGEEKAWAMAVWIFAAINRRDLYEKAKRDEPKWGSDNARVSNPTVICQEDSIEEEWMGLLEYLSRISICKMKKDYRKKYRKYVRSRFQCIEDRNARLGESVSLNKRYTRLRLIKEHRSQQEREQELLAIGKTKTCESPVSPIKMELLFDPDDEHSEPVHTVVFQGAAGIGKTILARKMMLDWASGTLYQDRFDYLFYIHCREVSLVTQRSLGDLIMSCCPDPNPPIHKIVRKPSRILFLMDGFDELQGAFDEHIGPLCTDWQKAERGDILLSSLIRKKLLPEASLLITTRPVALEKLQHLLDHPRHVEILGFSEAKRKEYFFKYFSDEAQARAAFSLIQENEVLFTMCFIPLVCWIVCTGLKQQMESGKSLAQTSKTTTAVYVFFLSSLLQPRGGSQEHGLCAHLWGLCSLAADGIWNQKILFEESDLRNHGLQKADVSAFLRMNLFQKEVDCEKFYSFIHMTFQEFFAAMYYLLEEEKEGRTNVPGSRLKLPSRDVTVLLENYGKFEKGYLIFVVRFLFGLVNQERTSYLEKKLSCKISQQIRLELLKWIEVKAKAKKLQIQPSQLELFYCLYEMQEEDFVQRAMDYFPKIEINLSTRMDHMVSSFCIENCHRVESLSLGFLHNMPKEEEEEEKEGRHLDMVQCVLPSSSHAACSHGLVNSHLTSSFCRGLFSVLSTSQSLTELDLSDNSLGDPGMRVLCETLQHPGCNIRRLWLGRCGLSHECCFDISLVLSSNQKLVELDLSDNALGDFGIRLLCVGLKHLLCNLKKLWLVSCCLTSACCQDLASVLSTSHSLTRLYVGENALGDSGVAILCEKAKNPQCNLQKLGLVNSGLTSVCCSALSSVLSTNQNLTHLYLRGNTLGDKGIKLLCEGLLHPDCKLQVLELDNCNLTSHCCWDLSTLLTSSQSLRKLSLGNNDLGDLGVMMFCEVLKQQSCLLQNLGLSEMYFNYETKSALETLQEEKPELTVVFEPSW
Toll-like receptor 4, sequence (O00206 whole entry): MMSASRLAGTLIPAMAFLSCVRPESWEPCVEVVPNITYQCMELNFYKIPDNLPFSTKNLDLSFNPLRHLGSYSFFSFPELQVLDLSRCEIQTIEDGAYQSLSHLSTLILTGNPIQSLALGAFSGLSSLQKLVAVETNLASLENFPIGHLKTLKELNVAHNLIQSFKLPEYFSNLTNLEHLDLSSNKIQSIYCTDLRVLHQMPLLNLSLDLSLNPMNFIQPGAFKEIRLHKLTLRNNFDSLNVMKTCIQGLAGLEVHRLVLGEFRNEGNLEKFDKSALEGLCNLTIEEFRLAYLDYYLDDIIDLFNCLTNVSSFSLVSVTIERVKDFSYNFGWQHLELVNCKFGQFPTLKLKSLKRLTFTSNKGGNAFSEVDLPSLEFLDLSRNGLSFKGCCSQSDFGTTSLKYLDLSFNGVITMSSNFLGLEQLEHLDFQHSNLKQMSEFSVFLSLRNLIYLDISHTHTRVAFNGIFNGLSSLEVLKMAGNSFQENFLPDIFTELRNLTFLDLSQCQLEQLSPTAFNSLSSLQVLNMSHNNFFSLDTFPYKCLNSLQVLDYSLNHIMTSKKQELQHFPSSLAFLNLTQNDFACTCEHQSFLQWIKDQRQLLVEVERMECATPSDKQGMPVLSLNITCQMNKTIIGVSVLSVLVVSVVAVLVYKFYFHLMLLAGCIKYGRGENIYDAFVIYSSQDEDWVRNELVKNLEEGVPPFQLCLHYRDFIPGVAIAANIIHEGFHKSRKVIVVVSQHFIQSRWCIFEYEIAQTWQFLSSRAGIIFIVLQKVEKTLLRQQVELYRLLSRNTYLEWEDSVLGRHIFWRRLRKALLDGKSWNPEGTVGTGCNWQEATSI
Xanthine dehydrogenase/oxidase, sequence (P47989 whole entry, the tested form may be a part): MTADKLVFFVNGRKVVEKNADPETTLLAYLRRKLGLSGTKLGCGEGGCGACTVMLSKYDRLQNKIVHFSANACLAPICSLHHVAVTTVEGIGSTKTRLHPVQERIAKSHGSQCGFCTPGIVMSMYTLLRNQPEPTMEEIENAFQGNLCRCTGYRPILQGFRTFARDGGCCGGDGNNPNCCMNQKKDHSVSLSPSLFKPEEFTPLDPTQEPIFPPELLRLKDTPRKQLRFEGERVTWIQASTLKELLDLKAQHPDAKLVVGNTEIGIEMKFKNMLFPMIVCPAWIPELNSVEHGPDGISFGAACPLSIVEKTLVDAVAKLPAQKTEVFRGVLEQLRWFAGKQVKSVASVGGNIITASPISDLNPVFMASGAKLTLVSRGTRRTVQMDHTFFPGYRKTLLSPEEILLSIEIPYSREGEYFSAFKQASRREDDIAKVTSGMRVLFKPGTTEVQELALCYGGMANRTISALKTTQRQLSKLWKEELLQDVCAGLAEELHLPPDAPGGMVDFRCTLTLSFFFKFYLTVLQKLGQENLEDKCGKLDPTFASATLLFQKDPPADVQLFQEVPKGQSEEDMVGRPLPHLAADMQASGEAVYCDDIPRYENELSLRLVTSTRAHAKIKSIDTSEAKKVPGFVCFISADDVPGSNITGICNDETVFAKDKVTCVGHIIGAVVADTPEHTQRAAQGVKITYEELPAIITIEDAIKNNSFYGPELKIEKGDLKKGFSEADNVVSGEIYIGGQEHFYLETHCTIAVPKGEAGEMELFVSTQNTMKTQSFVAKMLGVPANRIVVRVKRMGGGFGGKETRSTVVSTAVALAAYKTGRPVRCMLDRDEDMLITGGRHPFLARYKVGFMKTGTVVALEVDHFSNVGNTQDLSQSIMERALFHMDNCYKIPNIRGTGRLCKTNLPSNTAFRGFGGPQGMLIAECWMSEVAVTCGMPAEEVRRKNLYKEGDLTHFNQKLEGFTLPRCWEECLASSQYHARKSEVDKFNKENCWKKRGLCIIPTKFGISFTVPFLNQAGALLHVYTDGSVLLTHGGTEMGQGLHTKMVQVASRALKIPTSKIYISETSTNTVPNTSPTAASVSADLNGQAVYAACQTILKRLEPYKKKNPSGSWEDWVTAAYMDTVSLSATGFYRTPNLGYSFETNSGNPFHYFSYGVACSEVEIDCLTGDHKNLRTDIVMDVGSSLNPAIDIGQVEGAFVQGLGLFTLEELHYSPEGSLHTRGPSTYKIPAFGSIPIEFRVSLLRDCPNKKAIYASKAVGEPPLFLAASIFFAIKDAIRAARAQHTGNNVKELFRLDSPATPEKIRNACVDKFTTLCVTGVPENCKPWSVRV

SMILES: CCOC(=O)C1=CCCC[C@H]1S(=O)(=O)Nc1ccc(F)cc1Cl [RESATORVID]
- IC50 [1]: 0.68 µM

SMILES: COc1cc2c(c(OC)c1OC)-c1ccc(OC)c(=O)cc1[C@@H](NC(C)=O)CC2 [COLCHICINE]
- inhibition [2]: Active
- inhibition [3]: Active
- inhibition [4]: Active
- inhibition [5]: Active
- inhibition [6]: Active
- inhibition [7]: Active
- inhibition [8]: Active
- inhibition [9]: Active
- inhibition [10]: Active
- Activity [11]: 2.8 cm
- Activity [12]: 2.77 cm
- inhibition [13]: Active
- Activity [14]: 2.49 cm
- Activity [15]: 2.79 cm
- inhibition [16]: Active
- Activity [17]: 2.81 cm
- Activity [18]: 2.73 cm

SMILES: O/N=C(\Cc1ccc(F)cc1)c1nc2cc(Cl)ccc2o1
- IC50 [19]: > 100 µM

SMILES: O/N=C(\Cc1ccc(F)cc1)c1nc2ccc(Br)cc2o1
- IC50 [19]: > 100 µM

SMILES: COc1ccccc1C(=O)O/N=C(\C)c1nc2ccccc2o1
- IC50 [20]: 39.5 µM
- IC50 [1]: 25.9 µM
- IC50 [19]: 15.2 µM

SMILES: O/N=C(\Cc1ccccc1)c1nc2ccc(Br)cc2o1
- IC50 [19]: > 100 µM

SMILES: Cc1ccc2oc(/C(Cc3ccc(F)cc3)=N/O)nc2c1
- IC50 [1]: 45.7 µM

SMILES: O/N=C(\Cc1ccc(F)cc1)c1nc2ccc(Cl)cc2o1
- IC50 [19]: > 100 µM

SMILES: Cc1ccc2nc(/C(Cc3ccccc3)=N/O)oc2c1
- IC50 [1]: 19.3 µM

SMILES: Oc1ncnc2[nH]ncc12 [ALLOPURINOL]
- inhibition [21]: Active
- inhibition in vivo at 10 mg/kg [22]: 47.1%
- inhibition at 10 mg/kg [23]: 27.9%

SMILES: O=C(/C=C/c1ccc(O)cc1)c1ccc(O)cc1O [ISOLIQUIRITIGENIN]
- IC50 [20]: 1.54 µM

SMILES: COc1ccc(C/C(=N\O)c2nc3ccc(Cl)cc3o2)cc1
- IC50 [20]: 5.72 µM
- IC50 [1]: 5.42 µM
- IC50 [19]: 17.8 µM
